Source: patent publication US12252524B2, “GIP/GLP1 co-agonist compounds” (Eli Lilly and Company, priority 2018, dated 2025)
Numbered stars: 1 amine (or outer) side, 2 acyl side, 3 side chain; on linkers, the order of the positions; unused ones are H or OH. Square brackets hold non-standard residues; d marks the D form. Side chains are listed from the residue outwards. Peptide text beside a SMILES is read from it. * marks the point of attachment. C20 diacid = O=C(O)CCCCCCCCCCCCCCCCCCC(=O)*; αMePhe(2-F) = C[C@](N)(Cc1ccccc1F)C(=O)O; γGlu = O=C(O)[C@H](CCC(=O)[*:2])N[*:1]; αMeF = C[C@](N)(Cc1ccccc1)C(=O)O; αMeL = CC(C)C[C@](C)(N)C(=O)O; AEEA = NCCOCCOCC(=O)O; Aib = CC(C)(N)C(=O)O

Key:
[1] = biological target: human GLP-1 receptor (GLP-1R) (Homo sapiens, UniProt P43220); assay: cAMP pharmacological functional assay in presence of casein, hGLP-1R; type: cell-based; details: HEK293 cells expressing hGLP-1R, 0.1% Casein, geometric mean; read-out: hGLP1R cAMP Rel EC50 nM (SEM, n)
Sequence of human GLP-1 receptor (GLP-1R) (P43220 24-463): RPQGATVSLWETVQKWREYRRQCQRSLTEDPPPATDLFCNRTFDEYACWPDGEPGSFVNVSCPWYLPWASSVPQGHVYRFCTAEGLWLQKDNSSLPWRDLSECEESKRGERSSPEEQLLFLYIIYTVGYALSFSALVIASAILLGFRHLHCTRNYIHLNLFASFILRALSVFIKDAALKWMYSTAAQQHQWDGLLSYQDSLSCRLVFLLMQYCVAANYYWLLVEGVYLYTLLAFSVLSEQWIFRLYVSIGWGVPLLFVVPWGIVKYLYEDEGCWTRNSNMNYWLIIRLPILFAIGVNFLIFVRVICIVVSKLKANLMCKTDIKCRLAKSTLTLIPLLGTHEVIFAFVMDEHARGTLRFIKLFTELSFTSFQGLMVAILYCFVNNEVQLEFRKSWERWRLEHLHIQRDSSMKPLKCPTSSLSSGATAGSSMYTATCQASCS

[2] = biological target: T1, human Gcg receptor (Homo sapiens, UniProt P47871); assay: [125I]-Glucagon binding (SPA), human Gcg receptor; details: read-out: hGLcgR Ki, nM (SEM, n)
T1 construct: expressed in transfected cells; crude membranes
T1 sequence (P47871 26-477): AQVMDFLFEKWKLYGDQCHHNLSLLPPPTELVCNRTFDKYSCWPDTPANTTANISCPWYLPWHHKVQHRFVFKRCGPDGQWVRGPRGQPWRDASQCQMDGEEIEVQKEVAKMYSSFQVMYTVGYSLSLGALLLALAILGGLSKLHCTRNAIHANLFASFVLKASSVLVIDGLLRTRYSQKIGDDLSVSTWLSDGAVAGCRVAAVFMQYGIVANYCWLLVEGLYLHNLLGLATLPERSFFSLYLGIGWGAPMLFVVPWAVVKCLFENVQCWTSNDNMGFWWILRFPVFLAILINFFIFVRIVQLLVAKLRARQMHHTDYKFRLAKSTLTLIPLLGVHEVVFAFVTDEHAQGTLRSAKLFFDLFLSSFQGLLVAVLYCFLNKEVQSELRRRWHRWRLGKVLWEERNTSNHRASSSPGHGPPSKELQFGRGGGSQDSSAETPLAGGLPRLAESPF
Summary of the method: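 Cell pellets were lysed in hypotonic Tris buffer, pH 7.5, homogenized, and spun at low then high speed to give crude membranes. Ki was derived from the fitted IC50.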

[3] = biological target: T2, human GIP receptor (Homo sapiens, UniProt P48546); assay: [125I]-GIP binding (SPA), human GIP receptor; details: read-out: hGIPR Ki, nM (SEM, n)
T2 construct: expressed in transfected cells; crude membranes
T2 sequence (P48546 22-466): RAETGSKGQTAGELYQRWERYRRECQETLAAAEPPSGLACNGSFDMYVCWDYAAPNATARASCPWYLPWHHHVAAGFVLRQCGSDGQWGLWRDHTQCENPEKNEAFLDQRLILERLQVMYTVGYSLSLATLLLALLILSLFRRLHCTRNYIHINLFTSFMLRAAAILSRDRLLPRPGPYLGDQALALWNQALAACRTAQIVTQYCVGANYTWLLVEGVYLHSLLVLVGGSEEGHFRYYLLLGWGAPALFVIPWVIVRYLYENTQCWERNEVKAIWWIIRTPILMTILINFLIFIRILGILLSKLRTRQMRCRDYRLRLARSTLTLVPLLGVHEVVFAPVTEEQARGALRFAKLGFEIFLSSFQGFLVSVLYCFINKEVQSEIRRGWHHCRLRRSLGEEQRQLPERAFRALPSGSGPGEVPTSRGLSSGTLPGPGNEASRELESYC

[4] = biological target: human GLP-1R (Homo sapiens, UniProt P43220); assay: [125I]-GLP-1 binding (SPA), human GLP-1 receptor; design: expressed in transfected cells; crude membranes; details: read-out: hGLP1R Ki, (nM) (SEM, n)
Sequence of human GLP-1R (P43220 24-463): as the sequence (P43220 24-463) above
Summary of the method: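 Membranes: hypotonic lysis (50 mM Tris HCl, pH 7.5, protease inhibitors), Potter-Elvehjem homogenization, high-speed pellet (35000×g 1 h or 25000×g 30 min, 4° C.). Buffer: 25 mM HEPES pH 7.4, 2.5 mM CaCl2, 1 mM MgCl2. Four-parameter IC50 fit; Ki as geometric mean ± SEM.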

[5] = biological target: T3, gastric inhibitory peptide receptor (GIPR) (Homo sapiens, UniProt P48546); assay: cAMP pharmacological functional assay in presence of casein, hGIPR; type: cell-based; details: HEK293 cells expressing hGIPR, 0.1% Casein, geometric mean; read-out: hGIPR cAMP Rel EC50 nM (SEM, n)
T3 sequence (P48546 22-466): T2 sequence (P48546 22-466)

Q: `CC[C@H](C)[C@H](NC(=O)[C@H](CC(C)C)NC(=O)[C@H](Cc1ccc(O)cc1)NC(=O)[C@H](CCC(=O)O)NC(=O)[C@@H](NC(=O)[C@H](Cc1ccccc1)NC(=O)[C@H](C)NC(=O)C(C)(C)NC(=O)[C@H](CCC(N)=O)NC(=O)[C@H](C)NC(=O)[C@H](CCCCNC(=O)COCCOCCNC(=O)COCCOCCNC(=O)CC[C@H](NC(=O)CCCCCCCCCCCCCCCCCCC(=O)O)C(=O)O)NC(=O)[C@H](CCC(=O)O)NC(=O)[C@H](CC(=O)O)NC(=O)[C@H](CC(C)C)NC(=O)[C@](C)(CC(C)C)NC(=O)[C@@H](NC(=O)[C@H](CO)NC(=O)[C@H](Cc1ccc(O)cc1)NC(=O)[C@H](CC(=O)O)NC(=O)[C@H](CO)NC(=O)[C@@H](NC(=O)[C@](C)(Cc1ccccc1)NC(=O)[C@@H](NC(=O)CNC(=O)[C@H](CCC(=O)O)NC(=O)C(C)(C)NC(=O)[C@@H](N)Cc1ccc(O)cc1)[C@@H](C)O)[C@@H](C)O)[C@@H](C)CC)[C@@H](C)CC)C(=O)N[C@@H](CCC(=O)O)C(=O)NCC(=O)NCC(=O)N1CCC[C@H]1C(=O)N[C@@H](CO)C(=O)N[C@@H](CO)C(=O)NCC(=O)N[C@@H](C)C(=O)N1CCC[C@H]1C(=O)N1CCC[C@H]1C(=O)N1CCC[C@H]1C(=O)N[C@@H](CO)C(N)=O` [Example 115] (H-Y[Aib]EGT[αMeF]TSDYSI[αMeL]LDEK([AEEA-AEEA-γGlu-C20 diacid])AQ[Aib]AFIEYLIEGGPSSGAPPPS-NH2) was tested. Which EC50 [1] did it give?
A: Its EC50 is 0.088 nM.

Q: And the Ki [2]?
A: The Ki was 9.89 nM.

Q: And the Ki [3]?
A: Its Ki is 0.0302 nM.

Q: And the Ki [4]?
A: The Ki was 3.43 nM.

Q: And the EC50 [5]?
A: The EC50 was 0.102 nM.

Q: Which results are given for `CC[C@H](C)[C@H](NC(=O)[C@H](CC(C)C)NC(=O)[C@H](Cc1ccc(O)cc1)NC(=O)[C@H](CCC(=O)O)NC(=O)[C@@H](NC(=O)[C@H](Cc1ccccc1)NC(=O)[C@H](CCC(=O)O)NC(=O)C(C)(C)NC(=O)[C@H](CCC(N)=O)NC(=O)[C@H](C)NC(=O)[C@H](CCCCNC(=O)COCCOCCNC(=O)COCCOCCNC(=O)CC[C@H](NC(=O)CCCCCCCCCCCCCCCCCCC(=O)O)C(=O)O)NC(=O)[C@H](CCC(=O)O)NC(=O)[C@H](CC(=O)O)NC(=O)[C@H](CC(C)C)NC(=O)[C@](C)(CC(C)C)NC(=O)[C@@H](NC(=O)[C@H](CO)NC(=O)[C@H](Cc1ccc(O)cc1)NC(=O)[C@H](CC(=O)O)NC(=O)[C@H](CO)NC(=O)[C@@H](NC(=O)[C@](C)(Cc1ccccc1)NC(=O)[C@@H](NC(=O)CNC(=O)[C@H](CCC(=O)O)NC(=O)C(C)(C)NC(=O)[C@@H](N)Cc1ccc(O)cc1)[C@@H](C)O)[C@@H](C)O)[C@@H](C)CC)[C@@H](C)CC)C(=O)N[C@@H](CCC(=O)O)C(=O)NCC(=O)NCC(=O)N1CCC[C@H]1C(=O)N[C@@H](CO)C(=O)N[C@@H](CO)C(=O)NCC(=O)N[C@@H](C)C(=O)N1CCC[C@H]1C(=O)N1CCC[C@H]1C(=O)N1CCC[C@H]1C(=O)N[C@@H](CO)C(N)=O` [Example 116] (H-Y[Aib]EGT[αMeF]TSDYSI[αMeL]LDEK([AEEA-AEEA-γGlu-C20 diacid])AQ[Aib]EFIEYLIEGGPSSGAPPPS-NH2)?
A: EC50 [1]: 0.0703 nM; Ki [2]: 137 nM; Ki [3]: 0.0597 nM; Ki [4]: 6.8 nM; EC50 [5]: 0.0867 nM

Q: Which results are given for `CC[C@H](C)[C@H](NC(=O)[C@H](CC(C)C)NC(=O)[C@H](Cc1ccc(O)cc1)NC(=O)[C@H](CCC(=O)O)NC(=O)[C@@H](NC(=O)[C@H](Cc1ccccc1)NC(=O)[C@H](C)NC(=O)C(C)(C)NC(=O)[C@H](CCC(N)=O)NC(=O)[C@H](C)NC(=O)[C@H](CCCCNC(=O)COCCOCCNC(=O)COCCOCCNC(=O)CC[C@H](NC(=O)CCCCCCCCCCCCCCCCCCC(=O)O)C(=O)O)NC(=O)[C@H](CCC(=O)O)NC(=O)[C@H](CC(=O)O)NC(=O)[C@H](CC(C)C)NC(=O)C(C)(C)NC(=O)[C@@H](NC(=O)[C@H](CO)NC(=O)[C@H](Cc1ccc(O)cc1)NC(=O)[C@H](CC(=O)O)NC(=O)[C@H](CO)NC(=O)[C@@H](NC(=O)[C@](C)(Cc1ccccc1)NC(=O)[C@@H](NC(=O)CNC(=O)[C@H](CCC(=O)O)NC(=O)C(C)(C)NC(=O)[C@@H](N)Cc1ccc(O)cc1)[C@@H](C)O)[C@@H](C)O)[C@@H](C)CC)[C@@H](C)CC)C(=O)N[C@@H](CCC(=O)O)C(=O)NCC(=O)NCC(=O)N1CCC[C@H]1C(=O)N[C@@H](CO)C(=O)N[C@@H](CO)C(=O)NCC(=O)N[C@@H](C)C(=O)N1CCC[C@H]1C(=O)N1CCC[C@H]1C(=O)N1CCC[C@H]1C(=O)N[C@@H](CO)C(N)=O` [Example 117] (H-Y[Aib]EGT[αMeF]TSDYSI[Aib]LDEK([AEEA-AEEA-γGlu-C20 diacid])AQ[Aib]AFIEYLIEGGPSSGAPPPS-NH2)?
A: EC50 [1]: 0.0615 nM; Ki [2]: 192 nM; Ki [3]: 0.0497 nM; Ki [4]: 6.96 nM; EC50 [5]: 0.0648 nM

Q: For `CC[C@H](C)[C@H](NC(=O)[C@H](CC(C)C)NC(=O)[C@H](Cc1ccc(O)cc1)NC(=O)[C@H](CCC(=O)O)NC(=O)[C@@H](NC(=O)[C@H](Cc1ccccc1)NC(=O)[C@H](CCC(=O)O)NC(=O)C(C)(C)NC(=O)[C@H](CCC(N)=O)NC(=O)[C@H](C)NC(=O)[C@H](CCCCNC(=O)COCCOCCNC(=O)COCCOCCNC(=O)CC[C@H](NC(=O)CCCCCCCCCCCCCCCCCCC(=O)O)C(=O)O)NC(=O)[C@H](CCC(=O)O)NC(=O)[C@H](CC(=O)O)NC(=O)[C@H](CC(C)C)NC(=O)[C@](C)(CC(C)C)NC(=O)[C@@H](NC(=O)[C@H](CO)NC(=O)[C@H](Cc1ccc(O)cc1)NC(=O)[C@H](CC(=O)O)NC(=O)[C@H](CO)NC(=O)[C@@H](NC(=O)[C@](C)(Cc1ccccc1F)NC(=O)[C@@H](NC(=O)CNC(=O)[C@H](CCC(=O)O)NC(=O)C(C)(C)NC(=O)[C@@H](N)Cc1ccc(O)cc1)[C@@H](C)O)[C@@H](C)O)[C@@H](C)CC)[C@@H](C)CC)C(=O)N[C@@H](CCC(=O)O)C(=O)NCC(=O)NCC(=O)N1CCC[C@H]1C(=O)N[C@@H](CO)C(=O)N[C@@H](CO)C(=O)NCC(=O)N[C@@H](C)C(=O)N1CCC[C@H]1C(=O)N1CCC[C@H]1C(=O)N1CCC[C@H]1C(=O)N[C@@H](CO)C(N)=O` [Example 118] (H-Y[Aib]EGT[αMePhe(2-F)]TSDYSI[αMeL]LDEK([AEEA-AEEA-γGlu-C20 diacid])AQ[Aib]EFIEYLIEGGPSSGAPPPS-NH2), which EC50 [1] is on record?
A: The EC50 was 0.0588 nM.

Q: What about the Ki [2] of the same molecule?
A: Its Ki is 53 nM.

Q: And the Ki [3]?
A: Its Ki is 0.0859 nM.

Q: And the Ki [4]?
A: The Ki was 6.1 nM.

Q: And the EC50 [5]?
A: The EC50 was 0.0538 nM.

Q: What does the source list for `CC[C@H](C)[C@H](NC(=O)[C@H](CC(C)C)NC(=O)[C@H](Cc1ccc(O)cc1)NC(=O)[C@H](CCC(=O)O)NC(=O)[C@@H](NC(=O)[C@H](Cc1ccccc1)NC(=O)[C@H](C)NC(=O)C(C)(C)NC(=O)[C@H](CCC(N)=O)NC(=O)[C@H](C)NC(=O)[C@H](CCCCNC(=O)COCCOCCNC(=O)COCCOCCNC(=O)CC[C@H](NC(=O)CCCCCCCCCCCCCCCCCCC(=O)O)C(=O)O)NC(=O)[C@H](CCC(=O)O)NC(=O)[C@H](CC(=O)O)NC(=O)[C@H](CC(C)C)NC(=O)[C@](C)(CC(C)C)NC(=O)[C@@H](NC(=O)[C@H](CO)NC(=O)[C@H](Cc1ccc(O)cc1)NC(=O)[C@H](CC(=O)O)NC(=O)[C@H](CO)NC(=O)[C@@H](NC(=O)[C@](C)(Cc1ccccc1)NC(=O)[C@@H](NC(=O)CNC(=O)[C@H](CCC(=O)O)NC(=O)C(C)(C)NC(=O)[C@@H](N)Cc1ccccc1)[C@@H](C)O)[C@@H](C)O)[C@@H](C)CC)[C@@H](C)CC)C(=O)N[C@@H](CCC(=O)O)C(=O)NCC(=O)NCC(=O)N1CCC[C@H]1C(=O)N[C@@H](CO)C(=O)N[C@@H](CO)C(=O)NCC(=O)N[C@@H](C)C(=O)N1CCC[C@H]1C(=O)N1CCC[C@H]1C(=O)N1CCC[C@H]1C(=O)N[C@@H](CO)C(N)=O` [Example 119] (H-F[Aib]EGT[αMeF]TSDYSI[αMeL]LDEK([AEEA-AEEA-γGlu-C20 diacid])AQ[Aib]AFIEYLIEGGPSSGAPPPS-NH2)?
A: EC50 [1]: 0.0913 nM; Ki [2]: 30.6 nM; Ki [3]: 0.0925 nM; Ki [4]: 9.87 nM; EC50 [5]: 0.216 nM
